In patent publication US20080039496A1, “Method of Modulating Neurite Outgrowth by the use of a Galanin-3 Receptor Antagonist” (priority 2006, published 2008):

Tests used:
[1] = tested on: NGFβ; test: qPCR analysis of NGFβ mRNA in cultured mouse hippocampal neurons; type: cell-based; conditions: 10 μM, vs vehicle
Method: (§1) C57B1/6 or CD1 mouse embryonic (E17.5) hippocampal neurons were purchased from QBM Cell Science (University of Ottawa, Ontario, Canada). Neurons were cultured on poly-D-lysine coated 96 or 24 well plates in serum free Neurobasal medium supplemented with 2% B27, 500 μM L-glutamine, and 1 mM pyruvate. Cells were plated at a density of 20,000 per well on 96 well plates (for neurite outgrowth assays), and at 100,000 per well on […] (for qPCR analysis). For neurite outgrowth assays, neurons were cultured for 2 days and then stimulated for 24 hours. For gene-expression assays, neurons were grown for 8 days and then stimulated with HT-2157 or Vehicle.
(§2) RNA was isolated from cultured neurons at the indicated timepoint after HT-2157 treatment. Per well, one RNA preparation was performed using the QIAgen RNeasy kit (Qiagen) according to the manufacturer's specifications. cDNA was generated using TaqMan Reverse transcriptase kit (Applied Biosystems). 2 real-time PCR reactions per RNA/cDNA replication were performed using the ABI prism and SDS 2.1 software. ABI assays on demand (Applied Biosystems) were used to test the mRNA levels of BDNF, NGFβ, and Hes5. The average CT value for each cDNA sample was determined. Data was then normalized to TATA binding protein (TBP) and ΔCT values were determined. mRNA levels were normalized to a vehicle (0.2% DMSO) treated control group.

[2] = tested on: cryopreserved mouse hippocampal neurons; test: Neurite outgrowth assay in cryopreserved mouse hippocampal neurons (Example 1); type: cell-based; conditions: fixed 48 hr post treatment, various concentrations
Method: The cryopreserved mouse hippocampal neurons were plated into poly-L-lysine-coated 96 well plate (BD BioCoat) at 35,000 cells per well in Neurobasal/B27 medium (Invitrogen). 24 hr later the neurons were treated with HT-2157 at various concentrations and were subsequently fixed 48 hr post treatment.
(§3) Following fixation, Cellomics's Neurite Outgrowth reagent kit was used to label cells by a primary antibody specific for neurons. The cell nuclei were labeled by Hoechst 33342. Fluorescently labeled cells were then imaged and analyzed using Cellomics's Neurite Outgrowth and Extended Neurite Outgrowth Bioapplications on the ArrayScan HCS Reader. Images for quantitative HCS analysis were collected on the ArrayScan HCS Reader using a 10× or a 20× microscope objective.

[3] = tested on: BDNF; test: qPCR analysis of BDNF mRNA in cultured mouse hippocampal neurons; type: cell-based; conditions: 10 μM, vs vehicle
Method: as §1, §2

[4] = tested on: 5-HT transmission; conditions: Rowley et al. Br J Pharmacol 2005, P125; cited from earlier work
[5] = tested on: Hes5; test: qPCR analysis of Hes5 mRNA in cultured mouse hippocampal neurons; type: cell-based; design: dose or concentration left out as unconfirmed; conditions: vs vehicle
Method: as §1, §2

[6] = tested on: Hes5; test: qPCR analysis of Hes5 expression in NS-1 cells; type: cell-based
Method: NS-1 cells were plated into collagen I-coated 6 well plate (BD BioCoat) at 150,000 cells per well. 48 hr post NGF treatment at 200 ng/mL NS-1 cells were treated with HT-2157 for 2 hr, 4 hr or 24 hr at concentrations as indicated followed by RNA isolation using Ambion's RNAqueous-4PCR kit. Reverse transcription reactions were performed with Taqman reverse transcription reagents (Applied Biosystems). qPCR was performed on a 7900 real-time PCR machine using Optical 96 well reaction plates (Applied Biosystems). Expression levels were normalized to mouse TBP transcript levels.

[7] = tested on: GalR3; test: Western blot analysis of GalR3 expression in NS1 cells; type: cell-based; conditions: 24 hours after treatment
Method: Cultured NS1 cells were homogenized in RIPA buffer (Upstate Biotechnology) containing proteinase inhibitors (Roche). Protein concentrations were determined using the Biorad DC protein assay kit (Biorad). 20 μg of protein-lysate were separated by SDS poly-acrylamide gel electrophoresis (SDS-PAGE) and blotted onto nylon membranes. Western blots were blocked with 5% non-fat dry milk in Tris-buffered saline containing 0.05% Tween 20 (TBS-T) and the primary antibodies applied at 4° Celsius over night. Blots were probed with horseradish peroxidase (HRP) coupled secondary antibodies at room temperature for 1 h, and developed using the SuperSignal® West Pico Chemiluminescent Substrate (Pierce). We used a polyclonal antibody against GalR3 (Alpha Diagnostics). Blots were normalized to β-actin (Sigma).

[8] = tested on: PC12 sub-clone, Neuroscreen-1 (NS-1) cells; test: Neurite outgrowth assay in NS-1 cells (Example 1); type: cell-based; conditions: NS-1 cells with 200 ng/mL NGF, fixed 24 hr post treatment, various concentrations; dose-dependent
Method: PC12 sub-clone, Neuroscreen-1 (NS-1) cells were plated into collagen I-coated 96 well plate (BD BioCoat) at 5,000 cells per well in RPMI complete medium with 200 ng/mL NGF. 48 hr later NS-1 cells were treated with HT-2157 at various concentrations and were subsequently fixed 24 hr post treatment.
as §3

[9] = tested on: 5-HT; conditions: Rowley et al. Br J Pharmacol 2005, P127; cited from earlier work
[10] = tested on: NS1 cells; test: Neurite outgrowth assay in NS1 cells (Example 2); type: cell-based; conditions: 3 μM and 10 μM
Method: Neuroscreen 1 (NS1) Cells (Cellomics Inc.) were cultured on collagen type I coated 75 cm^2 plastic flasks (Biocoat, Becton Dickinson) in a humidified incubator at 37° C. in 5% CO2. Cells were cultured in RPMI complete cell culture medium (Cambrex) supplemented with 10% heat-inactivated horse serum (Invitrogen), 5% heat-inactivated fetal bovine serum (Cellgro), and 2 mM L-glutamine (Cambrex). For expansion, the cells were trypsinized and split at 80% confluence. The cell culture media was changed every 2 to 3 days.
NS1 cells were stimulated with nerve growth factor to induce differentiation into a neuronal phenotype. NS1 cells were harvested as if they were being passaged and then counted using a Coulter counter (Becton Dickinson Coulter Z1). Cells were seeded in 96-well collagen I coated plates at a density of 2000 cells per well in volume of 200 μl. RPMI media was supplemented with 200 ng/ml nerve growth factor (NGFβ, Sigma). NS1 cells were incubated for 72 hours to allow differentiation to a neuronal phenotype. NGFβ was then diluted to 50 ng/ml and the cells were treated with siRNA or HT-2157, respectively.
(§4) Neurite outgrowth assays were performed using the Cellomics Arrayscan II Vti HCS scanner. Cells were stained using the HitKit™ HCS reagent kit (Cellomics) according to the manufactures specifications. The assay is based on immunofluorescence using an antibody that has been validated to specifically label both neurites and neuronal cell bodies. Briefly, cells were fixed in 3.7% formaldehyde and nuclei stained with Hoechst dye. Cells were then washed in neurite outgrowth buffer and neurites stained with Cellomics' proprietary primary antibody for neurite outgrowth high content screening. After 1 hour of incubation with the primary antibody, the cells were washed again and then incubated with fluorescently labeled secondary antibody solution for 1 hour. Antibody-stained 96-well plates were store at 4° C. in the dark until scanning. Plates were scanned using Cellomics ArrayScan II Vti HCS scanner. The neurite outgrowth assay uses two channels to carry out the scan. Channel 1 detects the Hoechst Dye and is used by the software to identify cells and for automated focusing. Channel 2 detects the FITC fluorescence of the secondary antibody and is used by the software to calculate all data generated in reference to neurites.

[11] = tested on: cultured mouse hippocampal neurons; test: Neurite outgrowth assay in cultured mouse hippocampal neurons (Example 2); type: cell-based; conditions: 100 ng/ml for 24 hours
Method: as §1, §4

Row | Compound | NGFβ mRNA levels [1] | neurite length [2] | BDNF mRNA levels [3] | inhibitory effect of Galanin on 5-HT transmission [4] | Hes5 mRNA levels [5] | mRNA levels of Hes5 ([6]; NS1 cells, 2 hours and 4 hours after treatment with 3 or 10 μM, compared to vehicle) | Hes5 mRNA ([6]; NS1 cells, 24 hours after treatment) | Hes5 expression ([6]; NS-1 cells, treatment at 2 hr and 4 hr, time- and dose-dependent) | Expression of GalR3 [7] | neurite branch point [8] | neurite count [8] | neurite length [8] | extracellular levels of 5-HT in various brain regions [9] | average neurite length per cell [10] | number of neurite branch points per cell [10] | number of neurites per cell (neurite count) [10] | total neurite length per cell [10] | branch points [11] | neurite length [11] | number of neurites per cell [11]
1 | O=C1C(=Nc2cccc(C(F)(F)F)c2)c2ccccc2N1c1ccccc1 [HT-2157] | significantly increased | significantly increased | significantly increased | antagonize | significantly reduced | reduced | returned to baseline levels | down-regulated | not affected | increase | increase | increase | increase | increase | increase | increase | increase | – | – | –
2 | NGFβ: nerve growth factor β, neurotrophin (Sigma) | – | – | – | – | – | – | – | – | – | – | – | – | – | – | – | – | – | increased | increased | increased
